This is an account of results in PMC12162873, “Modulating phosphatase DUSP22 with BML-260 ameliorates skeletal muscle wasting via Akt independent JNK-FOXO3a repression” (EMBO Molecular Medicine, 2025).

The structures appear in SMILES notation.

This assay addresses T1, GST-tagged-DUSP22 (Homo sapiens, UniProt Q9NRW4).
T1 construct: purchased Sigma-Aldrich SRP5021
T1 sequence (Q9NRW4 1-184): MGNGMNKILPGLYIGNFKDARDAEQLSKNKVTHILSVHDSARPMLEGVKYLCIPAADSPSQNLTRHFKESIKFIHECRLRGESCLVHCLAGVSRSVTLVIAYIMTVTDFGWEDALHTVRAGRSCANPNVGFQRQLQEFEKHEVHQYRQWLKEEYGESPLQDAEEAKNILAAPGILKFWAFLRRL
The assay can be described thus: DUSP22 phosphatase activity assay (EnzChek kit, DiFMUP substrate). The format is biochemical. The note with it: 45 min at room temperature, read-out: IC50, inhibition of DUSP22 activity. The method, then:
The phosphatase activity of purified DUSP22 was measured using the EnzChek® Phosphatase Assay Kit (E12020, ThermoFisher, MA, USA) following the manufacturer’s instructions. In brief, for the assay a 200 µM 6,8-difluoro-4-methylumbelliferyl phosphate (DiFMUP) working solution was prepared. 50 µL DiFMUP solution was added to each well of a black-walled microplate, followed by a 50 µL sample containing GST-tagged-DUSP22 (SRP5021, Sigma-Aldrich, MO, USA) or 1X reaction buffer, to give a total reaction volume of 100 µL per well. BML-260 and 1X reaction buffer in a 50 µL volume were then added to each well. The microplate was incubated at room temperature for 45 min in the dark and fluorescence was measured at excitation 360 nm and emission 455 nm (SpectraMAX Gemini XS, Molecular Devices, CA, USA).
A) Phosphatase activity assay for DUSP22 and inhibition by BML-260. […] (n=4) B) CB-Dock2 molecular docking analysis of BML-260 binding to the active site of DUSP22, DUSP22 with an active site mutation (at C88S), and DUSP15, which is a DUSP member with the highest homology with DUSP22 (as assessed by sequence alignment).
BML-260 binding. BML-260 bound DUSP15 at the interface of the A and B chain, distinct from the predicted active site at position 85. n represents technical replicates analyzed by Stu-dent’s t test. […]

As a reminder, the IC50 is the concentration at which inhibition is half-maximal. As to `O=C(O)c1ccc(N2C(=O)C(=Cc3ccccc3)SC2=S)cc1` (stereo in doubt) [BML-260], the IC50 was 54 µM.
